According to patent publication US6548688B1, “Diammonium ruthenium diethylenethriaminepentaacetate or hydrates thereof and process for the preparation of both” (Chubu Chelest Co., Ltd., priority 1999, dated 2003):
Entries after “also recorded” stand apart in the source; their conditions may differ. Like-named read-outs stand apart in the source and are kept apart here.

Experiments:
Assay type in all cases: physicochemical
[1] = pH of 5% aqueous solution
solubility to water = settings: 25° C.
[2] = stability in the atmospheric condition and in aqueous solution

Compound: O=C([O-])CN(CCN1CCN2CC(=O)[O][Ru]([O]C(=O)C1)[O]C(=O)C2)CC(=O)[O-] [diammonium ruthenium diethylenetriaminepentaacetate]
- pH of 5% aqueous solution [1]: 5.1
- pH of 5% aqueous solution ([1]; listed as DTPA.Ru(III).(NH4)2.2H2O): 5.10
- solubility to water (solubility to water): 53 mass %
- solubility (solubility to water; crystals of Example 1): 53%
- precipitation in aqueous solution on change of pH ([2]; acid or alkali added into the aqueous solution to change pH): does not precipitate; also recorded: without precipitating
- storage stability (decomposition or transformation) ([2]; in the atmospheric condition and in the aqueous solution): can be stably preserved; also recorded: not decomposed
